Results: publication PMC11124136, “New Thiazolidine-4-One Derivatives as SARS-CoV-2 Main Protease Inhibitors” (Pharmaceuticals, 2024)

Molecular target: SARS-CoV-2 Mpro (Severe acute respiratory syndrome coronavirus 2, UniProt P0DTD1)
Experiment: biochemical
Format: biochemical
Conditions: for SARS-CoV-2 Mpro inhibition, result in words: inactivity = IC50 > 30 μM; for IC50: FRET assay, concentration reducing Mpro activity by 50%, mean ± SD of three independent experiments, highest concentration tested 30 μM

| Compound | SARS-CoV-2 Mpro inhibition, result in words | IC50 [µM] |
| --- | --- | --- |
| O=C1CSC(c2ccc([N+](=O)[O-])cc2)N1CCc1ccccc1 (stereo not drawn) [Compound 4a, 2-(4-nitrophenyl)-3-(phenylethyl)-1,3-thiazolidin-4-one] | inactive |  |
| O=C1CSC(c2ccc([N+](=O)[O-])cc2)N1CCc1cccc(F)c1 (stereo not drawn) [Compound 4c, 2-(4-nitrophenyl)-3-(3-fluorophenylethyl)-1,3-thiazolidin-4-one] | inactive |  |
| COc1ccccc1CCN1C(=O)CSC1c1ccc([N+](=O)[O-])cc1 (stereo not drawn) [Compound 4e] | inactive | > 30 |
| COc1ccc(CCN2C(=O)CSC2c2ccc([N+](=O)[O-])cc2)cc1 (stereo not drawn) [Compound 4f] | inactive | > 30 |
| O=C1CSC(c2ccc([N+](=O)[O-])cc2)N1CCc1ccccc1Cl (stereo not drawn) [Compound 4g] |  | 26 ± 4 |
| O=C1CSC(c2ccc([N+](=O)[O-])cc2)N1CCc1ccc(Cl)cc1 (stereo not drawn) [Compound 4i] | inactive | > 30 |
